These results are taken from ChEMBL document CHEMBL3804812, “Design, Syntheses, and Anti-TB Activity of 1,3-Benzothiazinone Azide and Click Chemistry Products Inspired by BTZ043” (ACS Med Chem Lett, 2016).

In brackets after ≈: the same amount, converted by molar mass. Activity calls are given as the source filed them. No cut-off for these calls is given here.

The term MIC denotes the lowest concentration that inhibits growth of the organism. A higher MIC goes with weaker potency. Broadly, the IC50 is the midpoint of a concentration-inhibition curve.

In test [1] the test system is Mycobacterium tuberculosis. The test is described as follows: Antibacterial activity against Mycobacterium tuberculosis H37Rv in GAS medium by microplate alamar blue assay. The format is functional. The note with it: for MIC: Mycobacterium tuberculosis, H37Rv.
Test [2] deals with Mycobacterium tuberculosis. The test can be described thus: Antibacterial activity against Mycobacterium tuberculosis H37Rv in 7H12 medium by microplate alamar blue assay. The format is functional. The conditions noted are these: for MIC: Mycobacterium tuberculosis, H37Rv. In general terms: Resazurin is reduced to fluorescent resorufin, in cell work by metabolically active cells.

Test [3] deals with Mycobacterium tuberculosis. The test is described as follows: Antibacterial activity against Mycobacterium tuberculosis H37Rv in 7H12 medium at >1uM by microplate alamar blue assay. The format is functional.
Test [4] has as its system Mycobacterium tuberculosis. The test is described as follows: Antibacterial activity against Mycobacterium tuberculosis H37Rv in GAS medium at >1uM by microplate alamar blue assay. The format is functional.
For test [5], the target named is T1, Decaprenylphosphoryl-beta-D-ribose oxidase (Mycobacterium tuberculosis (strain ATCC 25618 / H37Rv), UniProt P9WJF1).
T1 sequence (P9WJF1 whole entry): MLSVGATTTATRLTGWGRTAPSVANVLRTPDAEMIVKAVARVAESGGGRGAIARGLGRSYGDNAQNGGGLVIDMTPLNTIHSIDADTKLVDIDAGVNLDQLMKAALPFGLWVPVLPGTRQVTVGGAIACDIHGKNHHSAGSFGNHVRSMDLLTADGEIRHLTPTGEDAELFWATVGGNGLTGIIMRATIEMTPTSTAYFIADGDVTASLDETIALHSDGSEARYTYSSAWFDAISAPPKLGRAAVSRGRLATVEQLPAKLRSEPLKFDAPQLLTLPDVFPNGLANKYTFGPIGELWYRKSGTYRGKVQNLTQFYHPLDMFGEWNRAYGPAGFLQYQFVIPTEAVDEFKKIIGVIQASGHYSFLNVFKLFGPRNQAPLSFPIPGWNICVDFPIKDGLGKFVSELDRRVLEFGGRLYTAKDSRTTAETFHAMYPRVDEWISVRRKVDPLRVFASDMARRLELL
The test can be described thus: Inhibition of recombinant Mycobacterium tuberculosis H37Rv DprE1 using FPR as substrate assessed as residual enzymatic activity preincubated for 10 mins followed by substrate addition by fluorescence assay.

Test [6] addresses T2, Decaprenylphosphoryl-beta-D-ribose oxidase (Mycobacterium smegmatis (strain ATCC 700084 / mc(2)155)) (UniProt A0R607).
T2 sequence (whole entry): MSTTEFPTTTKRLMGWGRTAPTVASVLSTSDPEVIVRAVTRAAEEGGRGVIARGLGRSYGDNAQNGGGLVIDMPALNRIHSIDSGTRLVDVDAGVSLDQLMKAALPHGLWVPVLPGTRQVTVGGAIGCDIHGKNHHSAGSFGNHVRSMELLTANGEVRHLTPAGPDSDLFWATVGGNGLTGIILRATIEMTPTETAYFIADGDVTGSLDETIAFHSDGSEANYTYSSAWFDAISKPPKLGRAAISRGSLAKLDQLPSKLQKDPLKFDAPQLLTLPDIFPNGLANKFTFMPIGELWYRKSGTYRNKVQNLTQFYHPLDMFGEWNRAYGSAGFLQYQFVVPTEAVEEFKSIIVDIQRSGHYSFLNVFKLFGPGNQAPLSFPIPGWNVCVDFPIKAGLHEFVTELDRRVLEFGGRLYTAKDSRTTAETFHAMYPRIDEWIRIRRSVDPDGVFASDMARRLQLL
The test is described as follows: Inhibition of DprE1 in P-14C-RPP-labelled Mycobacterium smegmatis MC2 155 cell membranes assessed as supression of conversion of decaprenylphosphoryl ribose to decaprenylphosphoryl arabinose after 1 hr by TLC analysis. The format is cell-based. The note with it: Mycolicibacterium smegmatis MC2 155.

Test [7] has as its target T3, Decaprenylphosphoryl-beta-D-ribose oxidase (Mycobacterium tuberculosis (strain ATCC 25618 / H37Rv)) (UniProt P9WJF1).
T3 sequence (whole entry): T1 sequence (P9WJF1 whole entry)
The test can be described thus: Reversible inhibition of recombinant Mycobacterium tuberculosis H37Rv DprE1 using FPR as substrate assessed as residual enzymatic activity preincubated for 10 mins followed by substrate addition by fluorescence assay.

Test [8] deals with T3, Decaprenylphosphoryl-beta-D-ribose oxidase (Mycobacterium tuberculosis (strain ATCC 25618 / H37Rv)). The test is described as follows: Irreversible inhibition of recombinant Mycobacterium tuberculosis H37Rv DprE1 using FPR as substrate assessed as residual enzymatic activity preincubated for 10 mins followed by substrate addition by fluorescence assay.

Regarding `C[C@H]1COC2(CCN(c3nc(=O)c4cc(C(F)(F)F)cc(N)c4s3)CC2)O1`, the “inhibition (INH)” value amounted to 10% in test [1] and 12% in test [2]. The MIC in test [1] and in test [2] was more than 10 µM each time. Moreover, the “growth inhibition (GI)” value was 87% in test [3] and 0% in test [4].
As for `CCOC(=O)c1cn(-c2cc(C(F)(F)F)cc3c(=O)nc(N4CCC5(CC4)OC[C@H](C)O5)sc23)nn1`, the minimal inhibitory concentration (MIC) was more than 1 µM in test [1] and 0.93 µM (≈ 0.489 µg/mL) in test [2]. Besides, in test [4], the “growth inhibition (GI)” value was found to be 34%.
On to `C[C@H]1COC2(CCN(c3nc(=O)c4cc(C(F)(F)F)cc(N=[N+]=[N-])c4s3)CC2)O1`, for which the concentration for half-maximal inhibition (IC50) in test [5] worked out at 9.6 µM. Further, the minimum inhibitory concentration (MIC) in test [1] was 0.46 µM (≈ 0.197 µg/mL); in test [2], 0.47 µM (≈ 0.201 µg/mL). In test [6], the inhibition result is “inactive”. For the same compound, the inhibition result in test [7] is “Active”.
With `C[C@H]1COC2(CCN(c3nc(=O)c4cc(C(F)(F)F)cc([N+](=O)[O-])c4s3)CC2)O1` [BTZ-043], the minimal inhibitory concentration (MIC) in test [1] and in test [2] was less than 0.004 µM throughout. The inhibition result in test [6] and in test [8] was “Active” in each case.
Consider `CO[C@H]1/C=C/O[C@@]2(C)Oc3c(C)c(O)c4c(O)c(c(/C=N/N5CCN(C)CC5)c(O)c4c3C2=O)NC(=O)/C(C)=C\C=C\[C@H](C)[C@H](O)[C@@H](C)[C@@H](O)[C@@H](C)[C@H](OC(C)=O)[C@@H]1C` [RIFAMPIN], for which the MIC was 0.04 µM (≈ 0.0329 µg/mL) in test [1] and 0.05 µM (≈ 0.0411 µg/mL) in test [2].
Take `C[C@H]1COC2(CCN(c3nc(=O)c4cc(C(F)(F)F)cc(-n5cc(Cc6ccccc6)nn5)c4s3)CC2)O1`: the minimal inhibitory concentration (MIC) in test [1] was found to be 9.27 µM (≈ 5.04 µg/mL); in test [2], 9.9 µM (≈ 5.38 µg/mL). Further, the “growth inhibition (GI)” value in test [3] and in test [4] was 0% in each case.
For `C[C@H]1COC2(CCN(c3nc(=O)c4cc(C(F)(F)F)ccc4s3)CC2)O1`, the values for the MIC in test [1] and in test [2] were 8.68 µM (≈ 3.35 µg/mL) and more than 100 µM, respectively. Besides, the inhibition entry in test [6] is “inactive”.
For `C[C@H]1COC2(CCN(c3nc(=O)c4cc(C(F)(F)F)cc(-n5cc(CN(C)C)nn5)c4s3)CC2)O1`, the MIC in test [1] is 0.95 µM (≈ 0.485 µg/mL); in test [2] it was 0.87 µM (≈ 0.444 µg/mL).
